Source: patent US20240415819A1, “MACROCYCLIC COMPOUNDS AS PROTEASOME SUBUNIT BETA TYPE-5 INHIBITORS” (Lead Discovery Center GmbH, priority 2021, published 2024)

Legend:
B cell = B cell diff. (Table 4, method not given); type: cell-based; conditions: B-cell
[1] = test system: A549 (human lung carcinoma cell line); test: Glo assay of A549 cells (Table 3; ProteasomeGlo plating scheme); type: cell-based; conditions: Homo sapiens; A549 cells; read-out: PGLo A549
How it was run: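 Cells plated in 384 wells; compound, DMSO, staurosporine transferred by ECHO; 105 min, 37° C., 5% CO2; Proteasome-Glo (Suc-LLVY-Glo) reagent added; dark 10-15 min; luminescence; IC50 nM.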

IC50 (B cell): < 100 nM | IC50 [1]: < 100 nM
SMILES: Cc1ccc2cc1CNC(=O)[C@H](CCc1ccccc1)NC(=O)[C@@H](NC(=O)C(C)(C)C)CC(=O)N1CCCC(CCO2)C1 (stereo partly drawn) [Compound 27, N-((9S,12S)-5^4-methyl-8,11,14-trioxo-9-phenethyl-4-oxa-7,10-diaza-1(3,1)-piperidina-5(1,3)-benzenacyclotetradecaphane-12-yl)pivalamide]
